Measurements published in PMC7272640, “Molecular docking, synthesis and biological evaluation of Vascular Endothelial Growth Factor (VEGF) B based peptide as antiangiogenic agent targeting the second domain of the Vascular Endothelial Growth Factor Receptor 1 (VEGFR1D2) for anticancer application” (Signal Transduction and Targeted Therapy, 2020).
pIC50: −log10 of the molar value. Where a SMILES comes first, the peptide text is derived from it.

What was measured:
HUVEC [1] = assay: Wound healing assay (HUVEC migration); format: cell-based, human; conditions: compared with control; VGB3 0, 0.015, 0.03, 0.061 μM, 0.03 μg/ml VEGF-A, 2% FBS, 24 h
Procedure: 3 × 10^3 HUVECs were grown to confluence in 96-well plate. The monolayer was mechanically wounded using a sterile pipette tip followed by washing with PBS. The cells were incubated in the serum-starved DMEM medium containing 2% FBS and different concentrations (0, 0.015, 0.03, 0.061 μM) of VGB3 in the presence of (0.03 μg.ml^-1) VEGF-A for 24 h. Then HUVECs were washed with PBS two times and fixed using 4% paraformaldehyde at room temperature. After staining the cells with Giemsa, photographs were taken under a microscope (scale bar: 20 μm; Olympus BX-51, Japan) immediately and after 24 h incubation at the same location. Data are expressed as the average percentage wound closure for each group (n=6) of initial migrated cells at time 0 (T0), or as the percentage inhibition compared with a time-matched control. The wound area (the open area of the scratch) was quantified using ImageJ: (1 - (wound area at 24 h / wound area at 0 h))×100.

[2] = tested on: 4T1 mammary carcinoma cells; format: cell-based, murine
Procedure: (§1) 2× 10^3 HUVEC and 4T1 cell-line were cultured in DMEM medium supplemented with 10% FBS at 37 °C with 5% CO2 in 96-well plate. After 24 h, The cells were incubated in the media supplemented with 2% FBS, different concentrations (0, 0.015, 0.03, 0.061 μM) of VGB3 in the presence of (0.03 μg.ml^-1) VEGF-A (Sigma, St. Louis, MO) for 24 and 48 respectively. Then, cell proliferation was quantified by 3-(4,5–dimethylthiazol-2-yl)-2 ,5-diphenyl tetrazolium bromide (MTT) (Sigma, St. Louis, MO) solution (5 mg/mL) in PBS (pH 7.4) was added to each well and the plates were incubated in the dark at 37 °C for 4 h. Then the insoluble purple formazan product was dissolved by dimethyl sulfoxide (DMSO). Absorbance was measured at 570 nm using an ELISA plate reader. The assay was performed in triplicate.

HUVEC [3] = format: cell-based, human
Procedure: as §1

HUVEC [4] = assay: HUVEC Cytodex 3D bead sprouting assay; format: cell-based, human; conditions: HUVEC Cytodex beads in collagen gel; VGB3 0, 0.015, 0.03, 0.061 μM; VEGF (0.75 pM; method: 0.03 μg/ml VEGF-A); 24 h
Procedure: The fibrin or collagen sprouting angiogenesis assay was performed as previously described. Type I collagen was obtained as previously reported. HUVECs were allowed to attach to Cytodex microcarrier beads (Amersham Pharmacia Biotech, Sweden) by incubation in DMEM medium with 10% FBS for 4 h at 37 °C in 5% CO2 (60 μL of […] Cytodex beads were coated with 400 μl of HUVECs). EC-covered beads were embedded into the collagen gel under sodium bicarbonate conditions (Sigma, St. Louis, Missouri, USA), distributed in 96-well plates (100 μl/well), and placed in a 37 °C, 5% CO2 incubator for 30 min. Then DMEM supplemented with 2% FBS with a range of concentrations (0, 0.015, 0.03, 0.061 μM) of VGB3 in the presence of (0.03 μg.ml^-1) VEGF-A were added on top of the collagen gel. After 24 h, angiogenesis was monitored microscopically. All the capillary-like structures were photographed using an inverted microscope (Olympus BX-51, Japan) with a scale bar of 20 μm, and the number of sprouts grown on beads was quantified by ImageJ software. The assays were performed in triplicate.

[5] = Body weight of tumor-bearing mice; format: in vivo, Female BALB/c mice; conditions: VGB3 0.02-0.5 mg/kg i.v., day 13 till 31; two-way ANOVA
Procedure: Female BALB/c mice (5–7 weeks) were purchased from the Laboratory Animal Center of the Iran Pasteur Institute and maintained under standardized environmental conditions: 12 h light-dark phases, with free access to food and water. For treatment with VGB3, Tumor cells (4T1; 1×10^6 cells/500 μl or 1×10^5 cells/50 μl) were injected subcutaneously into the right flanks of mice (n=3–5). To generate the metastatic model, 4T1 tumor models were sterilized, excised from the breast cancer-bearing BALB/c mice, cut into pieces of <0.3 cm3, and subcutaneously implanted into the animals' right flanks under ketamine (100 mg/kg, i.p.) and xylazine (10 mg/kg, i.p.) anesthesia. Animals carrying tumors of size ~100mm3 were randomized to 6 mice/group (n=6). The treatment groups received 0.02, 0.1, 0.2 or 0.5 mg/kg of VGB3 on alternate days and the control group received PBS i.v. into the mice for 19 days from day 13. The tumor volume was measured every 5 days by a digital Vernier caliper (Mitutoyo, Japan), using the following formula: v=a^2×b×0.52 (where a is the shortest and b is the longest diameter). All studies were performed under the guidelines and with the approval of the Institutional Animal Care and Use Committee (IACUC) of Tehran University of Medical Sciences.

SMILES: CC(C)C[C@@H]1NC(=O)CNC(=O)[C@H](CC(=O)O)NC(=O)[C@H](CC(=O)O)NC(=O)[C@@H]2CCCN2C(=O)[C@@H]2CCCN2C(=O)[C@H](CCCNC(=N)N)NC(=O)[C@@H](NC(=O)[C@@H](N)CCC(=O)O)CSSC[C@@H](C(=O)O)NC1=O [VGB3] (HELM PEPTIDE1{E.C.R.P.P.D.D.G.L.C}$PEPTIDE1,PEPTIDE1,2:R3-10:R3$$$V2.0)
- migration of wounded HUVEC monolayers (HUVEC [1]): inhibits migration of wounded HUVEC monolayers compared with the control
- pIC50 ([2]; 48 h): 7.52
- IC50 fold lower than that of VEGFR1D2 fragments ([2]; VGB3 IC50 30 nM in 4T1 vs ~180 nM for VEGFR1D2 fragments in HUVEC (ref 3)): 6 fold
- pIC50 (HUVEC [3]; 48 h): 7.52
- inhibition of endothelial cell proliferation compared with other reported VEGF-B based peptides (HUVEC [3]; comparison with refs 2,4,5): more effectively inhibited endothelial cell proliferation
- inhibition of endothelial cell proliferation compared with clinically used drugs such as Bevacizumab (HUVEC [3]; endothelial cell culture conditions, comparison with refs 2,4,5): more potent
- angiogenesis in vitro (sprouting) (HUVEC [4]): inhibits angiogenesis in vitro
- body weight differences vs PBS control [5]: no significant (NS) differences
